Test [1] has as its target glucose dehydrogenase/NAD system (Bacillus subtilis, UniProt P12310). The experiment in a line: Photometric glucose determination with GlucDH/NAD, mediator and 2,18-phosphomolybdic acid (reflectance). The settings on record: for reflectance versus glucose concentration: test elements stored at room temperature for 11 weeks, GlucDH, NAD, mediator, 2,18-phosphomolybdic acid; for reflectance of the measured sample: glucose concentration in the region of 800 mg/dl. The procedure:
To determine glucose, various test systems which included in each case glucose dehydrogenase, NAD, a mediator and, where appropriate, an optical indicator were measured photometrically and electrochemically.
For photometric measurements, initially four test elements which had in each case been stored at room temperature for 11 weeks and comprised 2,18-phosphomolybdic acid, besides glucose dehydrogenase, NAD and a mediator, were investigated with various glucose concentrations.

Test [2] deals with glucose dehydrogenase (GlucDH), wild-type (Bacillus subtilis, UniProt P12310). The experiment in a line: Residual activity of GlucDH after dry storage on film with coenzyme. The following applies: after 5 weeks at 32° C. and 85% relative humidity; versus samples stored in refrigerator with desiccant. The class given is biochemical. The method, then:
Carba-NAD (FIG. 1A) or NAD were added to the glucose-specific GlucDH. These formulations were in each case applied to Pokalon film (Lonza) and, after drying, stored under warm and moist conditions (32° C., 85% relative humidity). The reaction kinetics and the function plot were subsequently determined at regular intervals. In parallel, at each of the times of measurement a cNAD/NAD analysis and a determination of the residual activity of the enzyme were carried out.
The result of the determination of residual activity of the active GlucDH enzyme after 5 weeks at 32° C. and 85% relative humidity (FIG. 7A) is completely surprising. […] After 24 weeks at 32° C. and 85% relative humidity (FIG. 7B), the residual activity of the enzyme on stabilization with cNAD is still about 25%.

Test [3] concerns the target glucose dehydrogenase (GlucDH) (Bacillus subtilis, UniProt P12310). The test is described as follows: Stability of GlucDH in liquid phase at 50° C. with coenzyme (residual activity). It counts as biochemical. The procedure:
FIG. 11A is a depiction of the stability of glucose dehydrogenase in the presence of NAD and cNAD, respectively, in liquid phase at 50° C. over a period of 4 days Test conditions: GlucDH 10 mg/ml; NAD and cNAD, respectively, 12 mg/ml; buffer: 0.1 M Tris, 1.2 M NaCl, pH 8.5; temperature 50° C.
FIG. 11B is a depiction of the stability of glucose dehydrogenase in the presence of NAD and cNAD, respectively, in liquid phase at 50° C. over a period of 14 days at the same test conditions as FIG. 11A.
After 95 hours at 50° C., the residual activity of glucose dehydrogenase in the presence of the native coenzyme NAD is ≈5%, whereas the residual activity of GlucDH in the presence of the artificial coenzyme cNAD is 75% (FIG. 11A). After storage at 50° C. for 336 hours, the residual activity of the enzyme stabilized with NAD is now only about 1%; the residual activity of the enzyme stored in the presence of cNAD is observed to be still about 70%.

Test [4] deals with T1, alcohol dehydrogenase from yeast (Saccharomyces cerevisiae, UniProt P00330).
T1 sequence (P00330 1-348): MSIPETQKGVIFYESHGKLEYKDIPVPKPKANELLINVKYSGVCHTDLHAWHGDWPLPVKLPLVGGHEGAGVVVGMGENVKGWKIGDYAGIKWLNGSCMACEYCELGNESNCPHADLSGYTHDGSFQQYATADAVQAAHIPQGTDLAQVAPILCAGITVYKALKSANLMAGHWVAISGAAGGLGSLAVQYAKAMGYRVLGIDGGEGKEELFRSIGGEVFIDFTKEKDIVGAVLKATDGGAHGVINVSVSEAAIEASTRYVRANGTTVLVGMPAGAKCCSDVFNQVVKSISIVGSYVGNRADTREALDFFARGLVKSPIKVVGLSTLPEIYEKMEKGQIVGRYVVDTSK
The experiment in a line: Stability of alcohol dehydrogenase in liquid phase at 35° C. with coenzyme (residual activity). It counts as biochemical. The following applies: after 65 hours at 35° C. The procedure:
FIG. 14 is a depiction of the stability of alcohol dehydrogenase from yeast in the presence of NAD and cNAD, respectively, in liquid phase at 35° C. over a period of 65 hours. Test conditions: ADH 5 mg/ml; NAD and cNAD, respectively, 50 mg/ml; buffer: 75 mM Na4P207, glycine, pH 9.0; temperature 35° C.
cNAD or NAD were added to an alcohol detection solution. These mixtures were stored at 35° C. The stability of the enzyme was then checked at regular intervals, and the residual activity of the enzyme was determined.
After 65 hours at 35° C., the residual activity of alcohol dehydrogenase in the presence of the native coenzyme NAD is about 6%, whereas the residual activity of the enzyme in the presence of the artificial coenzyme cNAD is still about 60%.

Structures are written as SMILES.

Chain of glucose dehydrogenase/NAD system (P12310 whole entry): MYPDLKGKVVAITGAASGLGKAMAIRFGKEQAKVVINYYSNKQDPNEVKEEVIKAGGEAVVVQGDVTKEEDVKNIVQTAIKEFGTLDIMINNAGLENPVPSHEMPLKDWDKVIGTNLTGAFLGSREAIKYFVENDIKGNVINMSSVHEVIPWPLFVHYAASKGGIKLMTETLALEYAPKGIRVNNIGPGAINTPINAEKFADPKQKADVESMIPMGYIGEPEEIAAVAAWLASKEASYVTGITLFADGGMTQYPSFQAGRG
Chain of glucose dehydrogenase (GlucDH) (P12310 whole entry): as above
Chain of glucose dehydrogenase (GlucDH), wild-type (P12310 whole entry): as above

With `C[n+]1cccc2c1-c1ncccc1C(=O)C2=O.O=S(=O)([O-])C(F)(F)F` [Med B, 1-methyl-5,6-dioxo-5,6-dihydro-1, 10-phenanthrolinium trifluoromethanesulfonate], the “reflectance versus glucose concentration” value in test [1] is on record as “a fall in the reflectance was observed with increasing glucose concentration”.

With `Cl.O=Nc1ccc(N(CO)CO)cc1` [Med A, [(4-nitrosophenyl)imino]dimethanol hydrochloride], in test [1], the “reflectance of the measured sample” value was “about 20%” and the “reflectance versus glucose concentration” value is listed as “a fall in the reflectance was observed with increasing glucose concentration”.

For `C[n+]1cccc2c1C(=O)C(=O)c1cccnc1-2.O=S(=O)([O-])C(F)(F)F` [Med F, 7-methyl-5,6-dioxo-5,6-dihydro-1,7-phenanthrolinium trifluoromethanesulfonate], the “reflectance versus glucose concentration” value in test [1] was “a fall in the reflectance was observed with increasing glucose concentration”.

For the compound `CC[n+]1c2ccccc2nc2c(OCCCC(=O)O)cccc21.O=S(=O)([O-])C(F)(F)F` [Med G, 1-(3-carboxypropoxy)-5-ethylphenazinium trifluoromethanesulfonate], in test [1], the “reflectance of the measured sample” value was “about 20%” and the “reflectance versus glucose concentration” value was “a fall in the reflectance was observed with increasing glucose concentration”.

Turning to `NC(=O)c1ccc[n+]([C@@H]2O[C@H](COP(=O)([O-])OP(=O)(O)OC[C@H]3O[C@@H](n4cnc5c(N)ncnc54)[C@H](O)[C@@H]3O)[C@@H](O)[C@H]2O)c1` [NAD, nicotinamide adenine dinucleotide, reference compound], the “residual activity of GlucDH enzyme” value in test [2] is on record as 0.5%. The “residual activity of glucose dehydrogenase” value in test [3] (after 95 hours at 50° C.) is recorded as “≈ 5%”; in test [3] (storage at 50° C. for 336 hours), “about 1%”. In addition, the “residual activity of alcohol dehydrogenase” value in test [4] is “about 6%”.

Values taken from patent publication US11220674B2, “Stabilization of dehydrogenases with stable coenzymes” (ROCHE DIABETES CARE, INC., priority 2009, dated 2022).
